Measurements reported in PubChem BioAssay AID256 (DTP/NCI, 2004).
Values joined by “and” are separate entries in the source; they are usually repeats but may differ in a detail not shown here. Equal values may be shown once. Inconclusive results and toxic doses are left out.

System: CD2F1 mice, L1210 leukemia ip, survival T/C
Experiment: NCI In Vivo Anticancer Drug Screen. Data for tumor model L1210 Leukemia (intraperitoneal) in CD2F1 (CDF1) mice
Conditions: higher = longer survival
In short: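 Activity against a transplanted murine tumor was judged by comparing the compound group with a vehicle group. The outcome in the treated animals was divided by that in the controls.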

[1] = endpoint: mean survival time, dose: 100.0 mg/kg/injection, schedule: Q04DX003 (ip), vehicle: saline with Tween-80
[2] = endpoint: mean survival time, dose: 100.0 mg/kg/injection, schedule: Q04DX002 (ip), vehicle: saline with Tween-80
[3] = endpoint: mean survival time, dose: 200.0 mg/kg/injection, schedule: Q04DX003 (ip), vehicle: saline with Tween-80
[4] = endpoint: mean survival time, dose: 400.0 mg/kg/injection, schedule: Q04DX003 (ip), vehicle: saline with Tween-80

Compound: CC(=O)NCCSSCCCCS(=O)O
- T/C (endpoint: median survival time, dose: 25.0 mg/kg/injection, schedule: Q01DX009 (ip), vehicle: suspension in saline): 93 % of control
- T/C (endpoint: median survival time, dose: 50.0 mg/kg/injection, schedule: Q01DX009 (ip), vehicle: suspension in saline): 100 % of control
- T/C (endpoint: median survival time, dose: 100.0 mg/kg/injection, schedule: Q01DX009 (ip), vehicle: suspension in saline): 96 % of control
- T/C (endpoint: median survival time, dose: 200.0 mg/kg/injection, schedule: Q01DX009 (ip), vehicle: suspension in saline): 100 % of control
- T/C (endpoint: median survival time, dose: 400.0 mg/kg/injection, schedule: Q01DX009 (ip), vehicle: suspension in saline): 114 % of control

Compound: O=C(O)CS(=O)c1ccc(Cl)cc1 (centres undefined)
- T/C (endpoint: mean survival time, dose: 50.0 mg/kg/injection, schedule: Q01DX001 (ip), vehicle: saline with Tween-80): 104 % of control
- T/C (endpoint: mean survival time, dose: 100.0 mg/kg/injection, schedule: Q01DX001 (ip), vehicle: saline with Tween-80): 95 % of control
- T/C (endpoint: mean survival time, dose: 200.0 mg/kg/injection, schedule: Q01DX001 (ip), vehicle: saline with Tween-80): 88 % of control

Compound: COc1ccc(CCNC2C3CC4CC(C3)CC2C4)cc1OC (centres undefined)
- T/C (endpoint: mean survival time, dose: 25.0 mg/kg/injection, schedule: Q04DX003 (ip), vehicle: saline with Tween-80): 112 % of control
- T/C (endpoint: mean survival time, dose: 50.0 mg/kg/injection, schedule: Q04DX003 (ip), vehicle: saline with Tween-80): 101 % of control
- T/C [1]: 101 % of control

Compound: Cc1ccc(S(=O)(=O)N=N/C=C2/C=CC=CN2O)cc1
- T/C (endpoint: mean survival time, dose: 20.0 mg/kg/injection, schedule: Q01DX009 (ip), vehicle: Klucel (hydroxypropylcellulose) (HPC)): 105 % of control
- T/C (endpoint: mean survival time, dose: 40.0 mg/kg/injection, schedule: Q01DX009 (ip), vehicle: Klucel (hydroxypropylcellulose) (HPC)): 108 % of control
- T/C (endpoint: mean survival time, dose: 45.0 mg/kg/injection, schedule: Q01DX009 (ip), vehicle: Klucel (hydroxypropylcellulose) (HPC)): 114 % of control
- T/C (endpoint: mean survival time, dose: 87.5 mg/kg/injection, schedule: Q01DX009 (ip), vehicle: Klucel (hydroxypropylcellulose) (HPC)): 121 % of control

Compound: CCOc1ccccc1OC(=O)Nc1ccccc1OC
- T/C [2]: 106 % of control
- T/C (endpoint: mean survival time, dose: 200.0 mg/kg/injection, schedule: Q04DX002 (ip), vehicle: saline with Tween-80): 88 % of control
- T/C (endpoint: mean survival time, dose: 400.0 mg/kg/injection, schedule: Q04DX002 (ip), vehicle: saline with Tween-80): 100 % of control

Compound: CCC(O)(c1ccccc1)C(O)(CC)c1ccccc1 (centres undefined)
- T/C (endpoint: mean survival time, dose: 50.0 mg/kg/injection, schedule: Q04DX002 (ip), vehicle: saline with Tween-80): 96 % of control
- T/C [2]: 86 % of control

Compound: O=C1Nc2ccccc2/C1=N/N=P(c1ccccc1)(c1ccccc1)c1ccccc1
- T/C (endpoint: median survival time, dose: 50.0 mg/kg/injection, schedule: Q04DX002 (ip), vehicle: saline with Tween-80): 100 % of control
- T/C (endpoint: median survival time, dose: 100.0 mg/kg/injection, schedule: Q04DX002 (ip), vehicle: saline with Tween-80): 110 % of control
- T/C (endpoint: median survival time, dose: 200.0 mg/kg/injection, schedule: Q04DX002 (ip), vehicle: saline with Tween-80): 100 % of control
- T/C (endpoint: median survival time, dose: 400.0 mg/kg/injection, schedule: Q04DX002 (ip), vehicle: saline with Tween-80): 100 % of control

Compound: O=C(Nc1ccccc1)c1c(O)[nH]c(=S)[nH]c1=O
- T/C (endpoint: median survival time, dose: 6.2 mg/kg/injection, schedule: Q01DX005 (iv), vehicle: other): 124 % of control
- T/C (endpoint: median survival time, dose: 6.2 mg/kg/injection, schedule: Q01DX005 (iv), vehicle: saline with Tween-80): 124 % of control
- T/C (endpoint: median survival time, dose: 6.25 mg/kg/injection, schedule: Q01DX009 (ip), vehicle: saline with Tween-80): 116 % of control
- T/C (endpoint: median survival time, dose: 12.5 mg/kg/injection, schedule: Q01DX005 (iv), vehicle: other): 124 % of control
- T/C (endpoint: median survival time, dose: 12.5 mg/kg/injection, schedule: Q01DX005 (iv), vehicle: saline with Tween-80): 124 % of control
- T/C (endpoint: median survival time, dose: 20.0 mg/kg/injection, schedule: Q01DX009 (ip), vehicle: saline with Tween-80): 119 % of control
- T/C (endpoint: median survival time, dose: 25.0 mg/kg/injection, schedule: Q01DX005 (iv), vehicle: other): 158 % of control
- T/C (endpoint: median survival time, dose: 25.0 mg/kg/injection, schedule: Q01DX009 (ip), vehicle: other): 197 % of control
- T/C (endpoint: median survival time, dose: 25.0 mg/kg/injection, schedule: Q01DX009 (ip), vehicle: water): 124 % of control
- T/C (endpoint: median survival time, dose: 30.0 mg/kg/injection, schedule: Q01DX009 (ip), vehicle: saline with Tween-80): 162 % of control
- T/C (endpoint: median survival time, dose: 44.0 mg/kg/injection, schedule: Q01DX009 (ip), vehicle: saline with Tween-80): 157 % of control and 168 % of control
- T/C (endpoint: median survival time, dose: 50.0 mg/kg/injection, schedule: Q01DX009 (ip), vehicle: other): 114 % of control
- T/C (endpoint: median survival time, dose: 50.0 mg/kg/injection, schedule: Q01DX009 (ip), vehicle: water): 204 % of control
- T/C (endpoint: median survival time, dose: 67.0 mg/kg/injection, schedule: Q01DX009 (ip), vehicle: saline with Tween-80): 182 % of control and 192 % of control

Compound: NCCc1c[nH]c2ccccc12 (tested in a mixture with another compound)
- T/C [1]: 97 % of control
- T/C [3]: 101 % of control
- T/C [4]: 94 % of control

Compound: COC(=O)C1CC2C=CC1CC2 (centres undefined)
- T/C (endpoint: mean survival time, dose: 100.0 mg/kg/injection, schedule: Q04DX003 (ip), vehicle: saline): 97 % of control
- T/C (endpoint: mean survival time, dose: 200.0 mg/kg/injection, schedule: Q04DX003 (ip), vehicle: saline): 105 % of control
- T/C (endpoint: mean survival time, dose: 400.0 mg/kg/injection, schedule: Q04DX003 (ip), vehicle: saline): 95 % of control

Compound: Cc1ccc(NC(=O)c2ccc(Cl)cc2)c(Br)c1
- T/C [1]: 103 % of control
- T/C [3]: 105 % of control
- T/C [4]: 97 % of control

Compound: CCc1cc(C)cc(OC(=O)Nc2ccc(Cl)cc2)c1
- T/C (endpoint: mean survival time, dose: 100.0 mg/kg/injection, schedule: Q01DX009 (ip), vehicle: saline with Tween-80): 93 % of control
- T/C [1]: 107 % of control
- T/C (endpoint: mean survival time, dose: 200.0 mg/kg/injection, schedule: Q01DX009 (ip), vehicle: saline with Tween-80): 100 % of control
- T/C [3]: 93 % of control
- T/C (endpoint: mean survival time, dose: 400.0 mg/kg/injection, schedule: Q01DX009 (ip), vehicle: saline with Tween-80): 96 % of control
- T/C [4]: 91 % of control

Compound: CC(=O)OCC1OC2OC(C)(OC(C)(C)C)OC2C(OC(C)=O)C1OC(C)=O (centres undefined)
- T/C (endpoint: mean survival time, dose: 12.5 mg/kg/injection, schedule: Q01DX009 (ip), vehicle: other): 97 % of control
- T/C (endpoint: mean survival time, dose: 25.0 mg/kg/injection, schedule: Q01DX009 (ip), vehicle: other): 95 % of control
- T/C (endpoint: mean survival time, dose: 50.0 mg/kg/injection, schedule: Q01DX009 (ip), vehicle: other): 97 % of control
- T/C (endpoint: mean survival time, dose: 100.0 mg/kg/injection, schedule: Q01DX009 (ip), vehicle: other): 103 % of control
- T/C (endpoint: mean survival time, dose: 200.0 mg/kg/injection, schedule: Q01DX009 (ip), vehicle: other): 98 % of control

Compound: O=C(c1ccc2c(c1)OCO2)c1ccc[nH]1
- T/C [1]: 94 % of control
- T/C [3]: 91 % of control

Compound: Cc1nn(-c2ccccc2)c2[nH]cnc(=S)c12
- T/C (endpoint: mean survival time, dose: 12.5 mg/kg/injection, schedule: Q01DX005 (ip), vehicle: other): 86 % of control
- T/C (endpoint: mean survival time, dose: 25.0 mg/kg/injection, schedule: Q01DX005 (ip), vehicle: other): 91 % of control
- T/C (endpoint: mean survival time, dose: 50.0 mg/kg/injection, schedule: Q01DX005 (ip), vehicle: other): 92 % of control
- T/C (endpoint: mean survival time, dose: 100.0 mg/kg/injection, schedule: Q01DX005 (ip), vehicle: other): 97 % of control
- T/C (endpoint: mean survival time, dose: 200.0 mg/kg/injection, schedule: Q01DX005 (ip), vehicle: other): 93 % of control

Compound: C[As](C)SCC1OC(n2ncc(=O)[nH]c2=O)C2OC(C)(C)OC12 (centres undefined)
- T/C (endpoint: median survival time, dose: 12.5 mg/kg/injection, schedule: Q01DX005 (ip), vehicle: distilled water + Tween-80): 97 % of control
- T/C (endpoint: median survival time, dose: 25.0 mg/kg/injection, schedule: Q01DX005 (ip), vehicle: distilled water + Tween-80): 105 % of control
- T/C (endpoint: median survival time, dose: 50.0 mg/kg/injection, schedule: Q01DX005 (ip), vehicle: distilled water + Tween-80): 94 % of control
- T/C (endpoint: median survival time, dose: 100.0 mg/kg/injection, schedule: Q01DX005 (ip), vehicle: distilled water + Tween-80): 101 % of control
- T/C (endpoint: median survival time, dose: 200.0 mg/kg/injection, schedule: Q01DX005 (ip), vehicle: distilled water + Tween-80): 101 % of control

Compound: COC1C(CO)OC(O)C(N)C1OC (centres undefined)
- T/C (endpoint: mean survival time, dose: 100.0 mg/kg/injection, schedule: Q01DX001 (ip), vehicle: saline): 103 % of control
- T/C (endpoint: mean survival time, dose: 200.0 mg/kg/injection, schedule: Q01DX001 (ip), vehicle: saline): 103 % of control
- T/C (endpoint: mean survival time, dose: 400.0 mg/kg/injection, schedule: Q01DX001 (ip), vehicle: saline): 97 % of control

Compound: O=C(OCC1OCOC1C1OCOC1COC(=O)c1ccccc1)c1ccccc1 (centres undefined)
- T/C (endpoint: mean survival time, dose: 100.0 mg/kg/injection, schedule: Q04DX003 (ip), vehicle: Klucel (hydroxypropylcellulose) (HPC)): 102 % of control
- T/C (endpoint: mean survival time, dose: 200.0 mg/kg/injection, schedule: Q04DX003 (ip), vehicle: Klucel (hydroxypropylcellulose) (HPC)): 97 % of control
- T/C (endpoint: mean survival time, dose: 400.0 mg/kg/injection, schedule: Q04DX003 (ip), vehicle: Klucel (hydroxypropylcellulose) (HPC)): 91 % of control

Compound: CC(=O)OCC1C(OC(C)=O)CC2CCC1N2C#N (centres undefined)
- T/C (endpoint: mean survival time, dose: 50.0 mg/kg/injection, schedule: Q04DX002 (ip), vehicle: Klucel (hydroxypropylcellulose) (HPC)): 107 % of control
- T/C (endpoint: mean survival time, dose: 100.0 mg/kg/injection, schedule: Q04DX002 (ip), vehicle: Klucel (hydroxypropylcellulose) (HPC)): 96 % of control
- T/C (endpoint: mean survival time, dose: 200.0 mg/kg/injection, schedule: Q04DX002 (ip), vehicle: Klucel (hydroxypropylcellulose) (HPC)): 88 % of control and 89 % of control
